ChEMBL document CHEMBL3045941, “-Methyl as a bioisostere for the oxygen link between the aromatic rings of aryloxyphenoxypropionate herbicides” (Bioorg Med Chem Lett, 1997)
The source made the active and inactive calls. No cut-off for these calls is given here.

What was measured:
Sorghum halepense [1] = experiment: Post-emergent herbicidal activity against Sorghum halepense (Johnson grass) at 500 g/ha measured after 13 days under green house conditions; format: functional
Triticum aestivum [2] = experiment: Phytotoxicity against Triticum aestivum (wheat) plant at two to four-leaf growth stage at 500 g/ha measured after 13 days under green house conditions; format: organism-based; details: in vivo, 312 h
Setaria viridis [3] = experiment: Post-emergent herbicidal activity against Setaria viridis (green foxtail) at 500 g/ha measured after 13 days under green house conditions; format: functional
Avena fatua [4] = experiment: Post-emergent herbicidal activity against Avena fatua at 500 g/ha measured after 13 days under green house conditions; format: functional
Oryza sativa [5] = experiment: Phytotoxicity against Oryza sativa (rice) plant at two to four-leaf growth stage at 500 g/ha measured after 13 days under green house conditions; format: organism-based; details: in vivo, 312 h
Oryza sativa [6] = experiment: Phytotoxicity against Oryza sativa (rice) plant at two to four-leaf growth stage at <2 g/ha measured after 13 days under green house conditions; format: organism-based; details: in vivo, 312 h
Triticum aestivum [7] = experiment: Phytotoxicity against Triticum aestivum (wheat) at two to four-leaf growth stage at <2 g/ha measured after 13 days under green house conditions; format: organism-based; details: in vivo, 312 h
Sorghum halepense [8] = experiment: Post-emergent herbicidal activity against Sorghum halepense (Johnson grass) at <2 g/ha measured after 13 days under green house conditions; format: functional, organism-based
Zea mays [9] = experiment: Phytotoxicity against Zea mays (maize) plant at two to four-leaf growth stage at 500 g/ha measured after 13 days under green house conditions; format: organism-based; details: in vivo, 312 h
Zea mays [10] = experiment: Phytotoxicity against Zea mays (maize) plant at two to four-leaf growth stage at <2 g/ha measured after 13 days under green house conditions; format: organism-based; details: in vivo, 312 h
Setaria viridis [11] = experiment: Post-emergent herbicidal activity against Setaria viridis (green foxtail) at <2 g/ha measured after 13 days under green house conditions; format: functional, organism-based
Echinochloa crus-galli [12] = experiment: Post-emergent herbicidal activity against Echinochloa crus-galli (barnyard grass) at 500 g/ha measured after 13 days under green house conditions; format: functional
Echinochloa crus-galli [13] = experiment: Post-emergent herbicidal activity against Echinochloa crus-galli (barnyard grass) at <2 g/ha measured after 13 days under green house conditions; format: functional, organism-based
Avena fatua [14] = experiment: Post-emergent herbicidal activity against Avena fatua at <2 g/ha measured after 13 days under green house conditions; format: functional, organism-based

CCOC(=O)C(C)Oc1ccc(Oc2cc3ccc(Cl)cc3cn2)cc1 (racemic)
Activity (Sorghum halepense [1]): 100%
Activity (Triticum aestivum [2]): 85%
Activity (Setaria viridis [3]): 85%
Activity (Avena fatua [4]): 85%
Activity (Oryza sativa [5]): 70%
Activity (Oryza sativa [6]): Non-toxic
Activity (Triticum aestivum [7]): Non-toxic
Activity (Sorghum halepense [8]): inactive
Activity (Zea mays [9]): 70%
Activity (Zea mays [10]): Non-toxic
Activity (Setaria viridis [11]): inactive
Activity (Echinochloa crus-galli [12]): 100%
Activity (Echinochloa crus-galli [13]): inactive
Activity (Avena fatua [14]): inactive

COC(=O)C(C)Oc1ccc(N(C)c2ccc(C(F)(F)F)cn2)cc1 (racemic)
Activity (Sorghum halepense [1]): 0%
Activity (Triticum aestivum [2]): 30%
Activity (Setaria viridis [3]): 0%
Activity (Avena fatua [4]): 0%
Activity (Oryza sativa [5]): 0%
Activity (Oryza sativa [6]): Non-toxic
Activity (Triticum aestivum [7]): Non-toxic
Activity (Sorghum halepense [8]): inactive
Activity (Zea mays [9]): 30%
Activity (Zea mays [10]): Non-toxic
Activity (Setaria viridis [11]): inactive
Activity (Echinochloa crus-galli [12]): 50%
Activity (Echinochloa crus-galli [13]): inactive
Activity (Avena fatua [14]): inactive

COC(=O)C(C)Oc1ccc(Oc2ccc3cc(Cl)ccc3n2)cc1 (racemic)
Activity (Sorghum halepense [1]): 100%
Activity (Triticum aestivum [2]): 85%
Activity (Setaria viridis [3]): 100%
Activity (Avena fatua [4]): 85%
Activity (Oryza sativa [5]): 85%
Activity (Oryza sativa [6]): Non-toxic
Activity (Triticum aestivum [7]): Non-toxic
Activity (Sorghum halepense [8]): inactive
Activity (Zea mays [9]): 100%
Activity (Zea mays [10]): Non-toxic
Activity (Setaria viridis [11]): inactive
Activity (Echinochloa crus-galli [12]): 100%
Activity (Echinochloa crus-galli [13]): inactive
Activity (Avena fatua [14]): inactive

COC(=O)C(C)Oc1ccc(Oc2nnc3cc(Cl)ccc3n2)cc1 (racemic)
Activity (Sorghum halepense [1]): 30%
Activity (Triticum aestivum [2]): 0%
Activity (Setaria viridis [3]): 50%
Activity (Avena fatua [4]): 0%
Activity (Oryza sativa [5]): 0%
Activity (Oryza sativa [6]): Non-toxic
Activity (Triticum aestivum [7]): Non-toxic
Activity (Sorghum halepense [8]): inactive
Activity (Zea mays [9]): 0%
Activity (Zea mays [10]): Non-toxic
Activity (Setaria viridis [11]): inactive
Activity (Echinochloa crus-galli [12]): 50%
Activity (Echinochloa crus-galli [13]): inactive
Activity (Avena fatua [14]): inactive

COC(=O)C(C)Oc1ccc(N(C)c2ccc(Cl)cc2Cl)cc1 (racemic)
Activity (Sorghum halepense [1]): 85%
Activity (Triticum aestivum [2]): 70%
Activity (Setaria viridis [3]): 85%
Activity (Avena fatua [4]): 0%
Activity (Oryza sativa [5]): 0%
Activity (Oryza sativa [6]): Non-toxic
Activity (Triticum aestivum [7]): Non-toxic
Activity (Sorghum halepense [8]): inactive
Activity (Zea mays [9]): 30%
Activity (Zea mays [10]): Non-toxic
Activity (Setaria viridis [11]): inactive
Activity (Echinochloa crus-galli [12]): 85%
Activity (Echinochloa crus-galli [13]): inactive
Activity (Avena fatua [14]): inactive

COC(=O)C(C)Oc1ccc(N(C)c2ccc3cc(Cl)ccc3n2)cc1 (racemic)
Activity (Sorghum halepense [1]): 100%
Activity (Triticum aestivum [2]): 85%
Activity (Setaria viridis [3]): 85%
Activity (Avena fatua [4]): 70%
Activity (Oryza sativa [5]): 30%
Activity (Oryza sativa [6]): Non-toxic
Activity (Triticum aestivum [7]): Non-toxic
Activity (Sorghum halepense [8]): inactive
Activity (Zea mays [9]): 100%
Activity (Zea mays [10]): Non-toxic
Activity (Setaria viridis [11]): inactive
Activity (Echinochloa crus-galli [12]): 100%
Activity (Echinochloa crus-galli [13]): inactive
Activity (Avena fatua [14]): inactive

CCOC(=O)C(C)Oc1ccc(N(C)c2cnc3cc(Cl)ccc3n2)cc1 (racemic)
Activity (Sorghum halepense [1]): 85%
Activity (Triticum aestivum [2]): 85%
Activity (Setaria viridis [3]): 85%
Activity (Avena fatua [4]): 0%
Activity (Oryza sativa [5]): 0%
Activity (Oryza sativa [6]): Non-toxic
Activity (Triticum aestivum [7]): Non-toxic
Activity (Sorghum halepense [8]): inactive
Activity (Zea mays [9]): 50%
Activity (Zea mays [10]): Non-toxic
Activity (Setaria viridis [11]): inactive
Activity (Echinochloa crus-galli [12]): 85%
Activity (Echinochloa crus-galli [13]): inactive
Activity (Avena fatua [14]): inactive

COC(=O)C(C)Oc1ccc(Oc2ncc3cc(Cl)ccc3n2)cc1 (racemic)
Activity (Sorghum halepense [1]): 85%
Activity (Triticum aestivum [2]): 0%
Activity (Setaria viridis [3]): 65%
Activity (Avena fatua [4]): 0%
Activity (Oryza sativa [5]): 0%
Activity (Oryza sativa [6]): Non-toxic
Activity (Triticum aestivum [7]): Non-toxic
Activity (Sorghum halepense [8]): inactive
Activity (Zea mays [9]): 15%
Activity (Zea mays [10]): Non-toxic
Activity (Setaria viridis [11]): inactive
Activity (Echinochloa crus-galli [12]): 85%
Activity (Echinochloa crus-galli [13]): inactive
Activity (Avena fatua [14]): inactive
